The NIST ThermoML archive (doi:10.1021/acs.jced.8b00678)
Where “and” joins values, the source holds several entries; their conditions need not be identical. Equal entries are not always repeated. Numbers after ± are expanded uncertainties.

Experiment: refractive index (Na D-line) (dimensionless); wn = mass fraction of the nth substance listed
Details: 298.15 K; 84.5 kPa; Liquid; Standard Abbe refractometry; w1 = 0.02

SMILES	refractive index
CCCCn1cc[n+](C)c1.F[B-](F)(F)F [1-butyl-3-methylimidazolium tetrafluoroborate] + O	1.3339 ± 0.00055 and 1.33393 ± 0.00055 and 1.33391 ± 0.00055
O=C(CO)[C@@H](O)[C@H](O)[C@H](O)CO [D-fructose] + O	1.33525 ± 0.00055
O=C[C@H](O)[C@@H](O)[C@H](O)[C@H](O)CO [D-glucose] + O	1.33529 ± 0.00055
OC[C@H]1O[C@@](CO)(O[C@H]2O[C@H](CO)[C@@H](O)[C@H](O)[C@H]2O)[C@@H](O)[C@@H]1O [D-sucrose] + O	1.33518 ± 0.00055
O=C[C@H](O)[C@@H](O)[C@@H](O)CO [L-arabinose] + O	1.33523 ± 0.00055
